For assay [1], the target named is T1, 5-hydroxytryptamine receptor 6 (Homo sapiens, UniProt P50406). Put plainly: Displacement of [3H]lysergic acid diethylamide from human recombinant 5HT6 receptor expressed in HeLa cells after 120 mins. The class given is cell-based. On the technique in general: Displacement assays read how much labelled ligand stays bound in the presence of the test substance.

The target of assay [2] is T1, 5-hydroxytryptamine receptor 6. Description: Antagonist activity at human recombinant 5HT6 receptor expressed in […] cells assessed as inhibition of serotonin-induced cAMP accumulation after 2 hrs. Format: functional, cell-based, HEK293. Background: cAMP levels reflect the balance of adenylyl cyclase and phosphodiesterase activity.
Assay [3] has as its target Voltage-gated inwardly rectifying potassium channel KCNH2 (Homo sapiens, UniProt Q12809). Put plainly: Inhibition of human recombinant ERG channel expressed in […] cells after 3 to 8 mins by voltage clamp assay. Format: cell-based.
Assay [4] has as its target T2, 5-hydroxytryptamine receptor 2B (Homo sapiens, UniProt P41595). Description: Displacement of [3H]lysergic acid diethylamide from human recombinant 5HT2B receptor at 1 uM.
Assay [5] has as its target T2, 5-hydroxytryptamine receptor 2B. Description: Antagonist activity at human recombinant 5HT2B receptor expressed in HEK293 cells assessed as inhibition of alphamethyl5HT-induced intracellular calcium mobilization by Fluo4-based staining method. The class given is functional, cell-based. A general note: Calcium assays in cells follow changes in intracellular calcium, usually with a dye or a luminescent sensor.

Assay [6] shares this target. Put plainly: Agonist activity at human recombinant 5HT2B receptor expressed in HEK293 cells assessed as increase in intracellular calcium mobilization by Fluo4-based staining method. Format: functional, cell-based.

pIC50, pKi: −log10 of the molar value. Activity calls are given as the source filed them. The calls are words filed in the database; no cut-off is given here.

For orientation: pKi means the negative decadic logarithm of the Ki, by convention in mol/L. One may read the pIC50 as the negative decadic logarithm of the IC50, by convention in mol/L.

T1 sequence (P50406 whole entry): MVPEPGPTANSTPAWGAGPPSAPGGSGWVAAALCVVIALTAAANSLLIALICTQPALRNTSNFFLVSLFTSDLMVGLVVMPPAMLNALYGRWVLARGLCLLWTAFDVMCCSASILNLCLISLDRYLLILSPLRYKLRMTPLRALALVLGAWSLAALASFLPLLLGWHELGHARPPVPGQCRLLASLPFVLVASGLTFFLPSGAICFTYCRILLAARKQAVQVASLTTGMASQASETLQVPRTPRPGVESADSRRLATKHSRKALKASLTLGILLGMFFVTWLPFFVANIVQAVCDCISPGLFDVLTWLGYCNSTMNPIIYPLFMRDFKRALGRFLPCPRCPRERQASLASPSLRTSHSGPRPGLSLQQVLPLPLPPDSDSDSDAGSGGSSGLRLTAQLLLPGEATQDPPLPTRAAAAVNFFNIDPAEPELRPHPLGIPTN
T2 sequence (P41595 whole entry): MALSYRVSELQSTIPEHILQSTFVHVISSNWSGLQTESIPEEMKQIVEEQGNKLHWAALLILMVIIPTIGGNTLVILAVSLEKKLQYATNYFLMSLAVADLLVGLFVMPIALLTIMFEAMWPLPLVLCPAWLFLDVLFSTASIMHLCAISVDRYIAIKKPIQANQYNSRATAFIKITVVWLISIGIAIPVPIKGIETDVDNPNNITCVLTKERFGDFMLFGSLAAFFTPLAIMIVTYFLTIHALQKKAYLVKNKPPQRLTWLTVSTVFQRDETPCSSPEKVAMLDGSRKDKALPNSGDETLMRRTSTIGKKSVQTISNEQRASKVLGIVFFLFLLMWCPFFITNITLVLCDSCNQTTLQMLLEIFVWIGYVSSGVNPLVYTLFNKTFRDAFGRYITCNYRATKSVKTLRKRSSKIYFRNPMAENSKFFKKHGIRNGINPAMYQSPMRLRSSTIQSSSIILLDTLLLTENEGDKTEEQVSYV
Voltage-gated inwardly rectifying potassium channel KCNH2, sequence (Q12809 whole entry): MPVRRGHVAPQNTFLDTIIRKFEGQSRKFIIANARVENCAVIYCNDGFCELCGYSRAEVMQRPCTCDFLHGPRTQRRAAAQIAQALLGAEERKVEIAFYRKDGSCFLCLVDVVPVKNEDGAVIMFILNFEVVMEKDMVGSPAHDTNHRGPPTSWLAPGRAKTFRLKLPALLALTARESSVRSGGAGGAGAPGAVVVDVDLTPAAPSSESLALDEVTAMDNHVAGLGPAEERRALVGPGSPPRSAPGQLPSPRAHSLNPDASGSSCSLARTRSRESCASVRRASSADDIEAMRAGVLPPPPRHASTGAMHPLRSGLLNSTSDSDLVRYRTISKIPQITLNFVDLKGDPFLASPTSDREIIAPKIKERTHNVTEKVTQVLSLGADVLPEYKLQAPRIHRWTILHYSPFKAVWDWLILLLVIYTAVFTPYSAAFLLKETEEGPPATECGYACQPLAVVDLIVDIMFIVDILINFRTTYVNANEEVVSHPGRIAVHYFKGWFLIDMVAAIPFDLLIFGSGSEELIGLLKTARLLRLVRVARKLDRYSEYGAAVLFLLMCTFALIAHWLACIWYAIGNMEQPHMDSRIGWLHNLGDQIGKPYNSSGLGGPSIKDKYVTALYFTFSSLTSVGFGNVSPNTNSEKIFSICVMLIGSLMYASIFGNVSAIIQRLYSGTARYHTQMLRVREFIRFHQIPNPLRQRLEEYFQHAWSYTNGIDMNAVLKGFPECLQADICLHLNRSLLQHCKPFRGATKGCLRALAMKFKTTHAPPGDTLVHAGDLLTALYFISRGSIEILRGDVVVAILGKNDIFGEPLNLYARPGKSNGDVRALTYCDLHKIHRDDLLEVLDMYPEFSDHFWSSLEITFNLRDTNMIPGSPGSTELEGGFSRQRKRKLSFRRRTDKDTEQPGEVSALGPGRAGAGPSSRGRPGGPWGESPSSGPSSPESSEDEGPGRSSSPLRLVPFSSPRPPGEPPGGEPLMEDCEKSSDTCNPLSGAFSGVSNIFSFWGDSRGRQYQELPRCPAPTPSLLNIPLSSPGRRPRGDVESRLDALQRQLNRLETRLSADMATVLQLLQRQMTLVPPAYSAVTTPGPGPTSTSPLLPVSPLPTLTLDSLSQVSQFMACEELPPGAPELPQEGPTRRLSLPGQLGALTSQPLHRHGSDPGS

For `Cc1nn2cc3c(nc2c1S(=O)(=O)c1ccccc1)CCN(C)C3`, the negative logarithm of the Ki (pKi) in assay [1] was below 5.00.

With `Cc1nn2c3c(cnc2c1S(=O)(=O)c1ccccc1)CN(C)CC3`, the negative logarithm of the Ki (pKi) in assay [1] was 7.22.

Consider `CSc1nn2cc3c(nc2c1S(=O)(=O)c1ccccc1)CCN(C)C3`, for which the negative-log Ki (pKi) in assay [2] was 6.31.

For the compound `CNc1nn2c3c(cnc2c1S(=O)(=O)c1ccccc1)CN(C)CC3`, the pKi was 8.74 in assay [2] and 9.41 in assay [1]. Further, the pIC50 in assay [3] is 4.27; in assay [5] (read-out: IC50), 5.21. Besides, in assay [4], the Activity was 50%. Moreover, in assay [5], the inhibition entry was “Dose-dependent effect”. The outcome in assay [6] was inactive.

In the case of `CNc1nn2c3c(cnc2c1S(=O)(=O)c1ccccc1)CNCC3`, in assay [2], the pKi was 8.72.

Take `CSc1nn2c3c(cnc2c1S(=O)(=O)c1ccccc1)CN(C)CC3`: the pKi is 7.83 in assay [2] and 8.11 in assay [1].

Turning to `CSc1nn2cc3c(nc2c1S(=O)(=O)c1ccc(F)cc1)CCN(C)C3`, the pKi in assay [2] was 5.94.

For `CSc1nn2c3c(cnc2c1S(=O)(=O)c1ccc(F)cc1)CN(C)CC3`, the negative logarithm of the Ki (pKi) in assay [1] is 7.45.

For `CNc1nn2cc3c(nc2c1S(=O)(=O)c1ccccc1)CCNC3`, the negative logarithm of the Ki (pKi) in assay [2] is 8.68.

The values are drawn from ChEMBL document CHEMBL2169877, “Antagonists of 5-HT₆ receptors. Substituted 3-(phenylsulfonyl)pyrazolo[1,5-a]pyrido[3,4-e]pyrimidines and 3-(phenylsulfonyl)pyrazolo[1,5-a]pyrido[4,3-d]pyrimidines-Synthesis and 'structure-activity' relationship” (Bioorg Med Chem Lett, 2012).
